# Read-outs that look alike come from different tables or passages of the source.
compound,measurement,setting,value
C[C@H]1CCCCC[C@](O)(C(F)(F)F)C(=O)NNC(=O)c2nc(c(C(F)(F)F)cc2NC(=O)OC(C)(C)C)O1,"ring closure, isolated yield","from C[C@@H](CCCCC[C@@](O)(C(=O)O)C(F)(F)F)Oc1nc(C(=O)NN)c(NC(=O)OC(C)(C)C)cc1C(F)(F)F, amide bond, 15-membered ring, HATU/DIEA, DMF (DIEA added in 2-MeTHF), 21.9 mM",15%
"tert-Butyl ((4R,10R)-10-(benzyloxy)-4-methyl-25,10-bis(trifluoromethyl)-3-oxa-1(2,5)-oxadiazola-2(2,6)-pyridinacyclodecaphane-23-yl)carbamate","ring closure, isolated yield","ether bond, 14-membered ring, PPh3/DIAD, toluene, 30.2 mM",52%
C[C@@H]1C/C=C\CCC(OCc2ccccc2)(C(F)(F)F)C2=NN=C(O2)c2nc(c(C(F)(F)F)cc2NC(=O)OC(C)(C)C)O1 (stereo partly drawn),"ring closure, isolated yield","from C[C@H](CC[P+](c1ccccc1)(c1ccccc1)c1ccccc1)Oc1nc(-c2nnc(C(CCC=O)(OCc3ccccc3)C(F)(F)F)o2)c(N(C(=O)OC(C)(C)C)C(=O)OC(C)(C)C)cc1C(F)(F)F, other bond, 14-membered ring, NaOtBu, THF, 11.2 mM",50%
